Source: patent US5124327A, “HIV reverse transcriptase” (Merck & Co., Inc., priority 1991, dated 1992)

Tests used:
[1] = target: T1, recombinant HIV reverse transcriptase (HIV RTR) (Human immunodeficiency virus type 1 group M subtype B, UniProt P04585); experiment: Reverse transcriptase assay: incorporation of tritiated dGMP into acid-precipitable cDNA; type: biochemical
T1 construct: recombinant HIV reverse transcriptase (HIV RTR)
Procedure: The assay measures the incorporation of tritiated deoxyguanosine monophosphate by recombinant HIV reverse transcriptase (HIV RTR) (or other RT) into acid-precipitable cDNA at the Km values of dGTP and poly r(C).oligo d(G)12-18.
Thirty uL of a reaction mixture containing equal volumes of: 500 mM Tris.HCl (pH 8.2), 300 mM MgCl2, 1200 mM KCl, 10 mM DTT, 400 μg/mL poly r(c).oligo d(G) [prepared by dissolving 1.5 mg (25 U) poly r(C).oligo d(G) in 1.5 ml sterile distilled H2 O and diluting to 400 μg/ml], 0.1 μCi/μl [^3 H] dGTP, 160 μM dGTP, was added to 10 μl sterile distilled H2 O, 2.5 μl of potential inhibitor and 10 μL of 5 nM purified HIV RTR in tubes. The mixture was incubated at 37° C. for 45 minutes.
After incubation is complete, the tubes were cooled in ice for 5 minutes. Ice-cold 13% TCA containing 10 mM NaPPi (200 μl) are added and the mixture incubated on ice for 30 minutes. The precipitated cDNA is removed by filtration using presoaked glass filters [TCA, NaPPi ]. The precipitate is then washed with 1N HCl, 10 mM NaPPi. The filter discs are then counted in a scintillation counter.
Under these conditions [dGTP] and poly r(C).oligo d(G)12-18 each are approximately equal to the appropriate Km value. Approximately 5-6,000 cpm of [^3 H] GMP are incorporated into acid-precipitable material. The RT reaction is concentration- and time-dependent. […]

HIV-1 strain IIIb = experiment: Inhibition of virus spread in HIV-infected MT-4 cells (p24 antigen); type: cell-based; conditions: Human immunodeficiency virus 1, IIIB, MT4, 72 h, concentration giving greater than 95% reduction in p24 antigen production relative to untreated controls, 3 days incubation, read-out: cell culture inhibitory concentration (CIC95)
Procedure: MT cells were infected at Day O at a concentration of 250,000 per ml with a 1:2000 dilution of HIV-1 strain IIIb stock (final 125 pg p24/ml; sufficient to yield ≤1% infected cells on day 1 and 25-100% on day 4). Cells were infected and grown in the following medium: RPMI 1640 (Whittaker BioProducts), 10% inactivated fetal bovine serum, 4 mM glutamine (Gibco Labs) and 1:100 Penicillin-Streptomycin (Gibco Labs).
The mixture was incubated overnight at 37° C. in 5% CO2 atmosphere.
Serial two-fold dilutions of compound were prepared in cell culture medium. At Day 1, aliquots of 125 μl of compound were added to equal volumes of HIV-infected MT-4 cells (50,000 per well) in a 96-well microtiter cell culture plate. Incubation was continued for 3 days at 37° C. in 5% CO2 atmosphere.
Using a multichannel pipettor, the settled cells were resuspended and a 125 μl harvested into a separate microtiter plate. […]
The concentration of HIV p24 antigen was measured by an enzyme immunoassay,described as follows. Aliquots of p24 antigen to be measured were added to microwells coated with a monoclonal antibody specific for HIV core antigen. […]
The cell culture inhibitory concentration (ClC95) for each compound is defined as that concentration which inhibited by greater than 95% the spread of infection, as assessed by a greater than 95% reduction in p24 antigen production relative to untreated controls.

[O-][S+](Cc1[nH]c2ccccc2c1Sc1ccccc1)c1ccccc1 (stereo not drawn) [compound A, 2-Phenylsulfinylmethyl-3-phenylthioindole]
IC50 ([1]; [dGTP] and poly r(C).oligo d(G)12-18 at approximately Km, 37° C., 45 minutes, read-out: calculated IC50): ~0.06 µM | incorporation of tritiated deoxyguanosine monophosphate into acid-precipitable cDNA ([1]; at the Km values of dGTP and poly r(C).oligo d(G)12-18): inhibits this incorporation | IC95 (HIV-1 strain IIIb): ~0.1 µM
